# Source: patent US8633315B2, “Substituted hydroxyethyl amine compounds as beta-secretase modulators and methods of use” (Amgen Inc., priority 2007, dated 2014)
# Like-named read-outs stand apart in the source and are kept apart here.
# What was measured:
# BACE1 = BACE1 (Homo sapiens, UniProt P56817); test: In vitro enzymatic BACE FRET (fluorescence resonance energy transfer) assay; format: biochemical
# Method in brief: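 Fluorescence (ex 488 nm, […]) was read after Tris addition raised pH to neutral, ending a one-hour incubation. Reaction started with 50 nM fluorophore/quencher peptide substrate in pH 4.2 acetate (0.05 M) containing 100 uM genapol and 10% DMSO final.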
# [1] = test system: Cells stably expressing Amyloid Precursor Protein (APP); test: In vitro BACE cell-based assay (HEK cell assay): Aβ40 in conditioned medium by sandwich ELISA
# Method in brief: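 Secreted Aβ40 was quantified by time-resolved fluorescence sandwich ELISA, capturing with pAb40 for 3 h at 4 °C and detecting with biotinylated 6E10 for 2 h at 4 °C. Media came from APP-expressing cells exposed 24 h to compounds (10-point series from 100 or 10 μM, 0.1% DMSO); IC50 derived from percent of control.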
# Abeta peptide = test: In vivo inhibition of beta-secretase: Abeta peptide in CSF and brain after oral dosing; conditions: Rattus norvegicus, po, orally dosed at about 30 mg/kg, CSF, read-out: reduction of Abeta peptide in the CSF of the rat
# Excerpt: In Vivo Inhibition of Beta-Secretase
# Several animal models, including mouse, rat, dog, and monkey, may be used to screen for inhibition of beta-secretase activity in vivo following administration of a test compound sample. Animals used in this invention can be wild type, transgenic, or gene knockout animals. For example, the Tg2576 mouse model, prepared and conducted as described in Hsiao et al., 1996, Science 274, 99-102, and other non-transgenic or gene knockout animals are useful to analyze in vivo inhibition of Amyloid beta peptide (Abeta) production in the presence of inhibitory test compounds. Generally, 2 to 18 month old Tg2576 mice, gene knockout mice or non-transgenic animals are administered test compounds formulated in vehicles, such as cyclodextran, phosphate buffers, hydroxypropyl methylcellulose or other suitable vehicles. […] A separate group of animals receive 2% hydroxypropyl methylcellulose, 1% Tween80 alone, containing no test compound, and serve as a vehicle-control group. At the end of the test period, animals are sacrificed and brain tissues, plasma or cerebrospinal fluid are collected. Brains are either homogenized in 10 volumes (w/v) of 0.2% diethylamine (DEA) in 50 mM NaCl (Best et al., 2005, Journal of Pharmacology and Experimental Therapeutics, 313, 902-908), or in 10 volumes of 0.5% TritonX-100 in Tris-buffered saline (pH at about 7.6). Homogenates are centrifuged at 355,000 g, 4° C. for 30 minutes. CSF or brain supernatants are then analyzed for the presence of Abeta peptide by specific sandwich ELISA assays based on ECL (Electrochemiluminescence) technology. For example, rat Abeta40 is measured using biotinylated-4G8 (Signet) as a capture antibody and Fab40 (an in-house antibody specific to the C-terminal of Abeta40) as a detection antibody. For example, 4 hours after administration of 30 mg/kg oral dose of the test compound in 2% hydroxypropyl methylcellulose, 1% Tween80 (pH2.2) to 200 g male Sprague Dawley rats, Abeta peptide levels are measured for reduction by X % and Y % in cerebrospinal fluid and brain, respectively, when compared to the levels measured in the vehicle-treated or control […].
# Actual vehicles used: Oral: 2% HPMC, 1% Tween80, pH 2.2
# • IV: 5% EtOH, 45% Propylene glycol in 5% Dextrose
# [2] = Microsomal stability assay, rat liver microsomes; format: in vitro ADME
# Excerpt: (§1) Microsomal Stability Assay
# CYP3A = CYP3A (Homo sapiens, UniProt P08684); test: CYP3A inhibition assay (midazolam, pooled human liver microsomes); format: in vitro ADME; conditions: microsomes
# [3] = Microsomal stability assay, human liver microsomes; format: in vitro ADME
# Excerpt: as §1
# [4] = Homo sapiens, HEK293, 24 h, Aβ40 in conditioned medium after 24 h incubation
# Chain of BACE1 (P56817 46-501, species assumed): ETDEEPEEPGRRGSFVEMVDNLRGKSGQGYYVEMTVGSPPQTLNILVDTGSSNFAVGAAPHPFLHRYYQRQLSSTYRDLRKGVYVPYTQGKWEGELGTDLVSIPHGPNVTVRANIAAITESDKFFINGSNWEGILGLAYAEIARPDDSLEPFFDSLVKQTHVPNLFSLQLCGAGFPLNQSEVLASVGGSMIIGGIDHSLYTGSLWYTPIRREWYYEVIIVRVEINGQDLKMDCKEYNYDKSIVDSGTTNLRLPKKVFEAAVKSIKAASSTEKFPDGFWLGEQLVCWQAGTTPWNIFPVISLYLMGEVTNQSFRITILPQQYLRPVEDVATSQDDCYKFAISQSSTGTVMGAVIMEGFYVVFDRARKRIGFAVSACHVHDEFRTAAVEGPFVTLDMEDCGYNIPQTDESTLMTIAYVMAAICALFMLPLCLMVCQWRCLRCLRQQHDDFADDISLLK
# Chain of CYP3A (P08684 2-503): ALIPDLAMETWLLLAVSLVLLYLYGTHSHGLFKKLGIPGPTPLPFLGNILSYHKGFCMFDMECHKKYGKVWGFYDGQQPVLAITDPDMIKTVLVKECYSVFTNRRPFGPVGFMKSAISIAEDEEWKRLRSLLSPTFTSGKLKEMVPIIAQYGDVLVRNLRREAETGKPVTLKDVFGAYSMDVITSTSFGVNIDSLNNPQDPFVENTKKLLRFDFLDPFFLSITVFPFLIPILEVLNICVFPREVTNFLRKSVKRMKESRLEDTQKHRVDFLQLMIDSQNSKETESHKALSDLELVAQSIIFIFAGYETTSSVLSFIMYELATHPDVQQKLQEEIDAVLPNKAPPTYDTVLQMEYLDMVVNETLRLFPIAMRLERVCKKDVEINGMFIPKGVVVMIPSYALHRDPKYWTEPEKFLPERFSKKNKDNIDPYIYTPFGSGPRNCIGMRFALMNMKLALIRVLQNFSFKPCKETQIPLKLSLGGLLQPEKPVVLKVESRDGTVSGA
IC50 (BACE1) [µM],"IC50 [1, 4] [µM]",Molecule,inhibition in vivo at 30 mg/kg (Abeta peptide) [%],IC50 (BACE1; read-out: BACE 1 FRET assay) [µM],RLM [2] [µL/min/mg],IC50 (CYP3A) [µM],HLM [3] [µL/min/mg],IC50 [1] [µM]
0.109,0.185,"CC#CC[C@H](NC(=O)[C@@H](C)OC)[C@H](O)CN[C@H]1CC2(CCC2)Oc2ncc(CC(C)(C)C)cc21 [Example 87, (2R)-N-((1S)-1-((1R)-2-(((4′S)-6′-(2,2-dimethylpropyl)-3′,4′-dihydrospiro[cyclobutane-1,2′-pyrano[2,3-b]pyridin]-4′-yl)amino)-1-hydroxyethyl)-3-pentyn-1-yl)-2-(methyloxy)propanamide]",≥ 5,–,–,–,–,–
0.02,0.072,"CC#CCC(NC(=O)C1CCC(=O)O1)C(O)CNC1CC2(CCC2)Oc2ncc(CC(C)(C)C)cc21 [Example 88, (S)-N((2R,3S)-1((S)-2,2-spirocyclobutane-6-neopentyl-3′,4′-dihydro-2H-pyrano[2,3-b]pyridin]-4′-ylamino)-2-hydroxyhept-5-yn-3-yl)-5-oxo-tetrahydrofuran-2-carboxamide.]",≥ 5,–,–,–,–,–
0.071,0.132,"CC#CC[C@H](NC(=O)COC)[C@H](O)CN[C@H]1CC2(CCC2)Oc2ncc(CC(C)(C)C)cc21 [Example 89, N-((1S)-1-((1R)-2-(((4′S)-6′-(2,2-dimethylpropyl)-3′,4′-dihydrospiro[cyclobutane-1,2′-pyrano[2,3-b]pyridin]-4′-yl)amino)-1-hydroxyethyl)-3-pentyn-1-yl)-2-(methyloxy)acetamide]",≥ 5,–,–,–,–,–
0.016,0.035,"C=CCC(NC(=O)COC)C(O)CNC1CC2(CC(O)C2)Oc2ncc(CC(C)(C)C)cc21 [Example 107, N-((1S)-1-((1R)-2-(((1s,3S,4′S)-6′-(2,2-dimethylpropyl)-3-hydroxy-3′,4′-dihydrospiro[cyclobutane-1,2′-pyrano[2,3-b]pyridin]-4′-yl)amino)-1-hydroxyethyl)-3-buten-1-yl)-2-(methyloxy)acetamide]",≥ 5,–,–,–,–,–
–,–,"N-((1S)-1-((1R)-2-(((4′S)-6′-(2,2-dimethylpropyl)-8′-(1-methyl-1H-imidazol-2-yl)-3′,4′-dihydrospiro[cyclobutane-1,2′-pyrano[2,3-c]pyridin]-4′-yl)amino)-1-hydroxyethyl)-3-buten-1-yl)-2-methoxyacetamide [Example 239]",–,0.208,340,1.1,311,1.5
